Experiment: physchem

pKa: 5
Compound: CCCCCCCCC(=O)O [A11]
